# Test results taken from publication PMC6982996, “Discovery of [1,2,4]Triazole Derivatives as New Metallo-β-Lactamase Inhibitors” (Molecules, 2019).
# Like-named read-outs stand apart in the source and are kept apart here.
# Experiments:
# KPC-2 = target: T1, KPC-2 (Klebsiella pneumoniae, UniProt Q9F663); assay: KPC-2 SBL inhibition assay (counter screen); type: biochemical; conditions: mean ± SD (n = 3)
# T1 construct: Li's Laboratory, Sichuan University (collaborator, a gift and not a purchase)
# Method: (§1) Considering that MBLs and SBLs are two catalogs of β-lactamases, we further tested the compound 5l against some representative SBL enzymes, including KPC-2 (Klebsiella pneumoniae carbapenemase 2), TEM-1, AmpC, and OXA-48 (Oxacillinase 48), with the aim of investigating its selectivity; particularly, this is used as a counter screening to indicate the specific inhibition to MBLs. […] […].
# (§2) All the target compounds were freshly prepared in 100 mM DMSO stock solutions. All the MBL and SBL enzymes used in this study were obtained from our collaborator, Li’s Laboratory in Sichuan University. Each compound was initially evaluated for inhibitory activity to MBL and SBL enzymes at 100 and 10 μM, by preincubation with the appropriate amount of enzymes in the assay buffer for 10 min, followed by adding the substrate FC5 to initiate the reactions, and monitoring the fluorescence at λex of 380 nm and λem of 460 nm. The IC50 values for the compounds (with 10 different concentrations in threefold dilution) were further determined. All determinations were tested in triplicate. The IC50 values were obtained from the plot of activity versus inhibitor concentration by using the GraphPad Prism software.
# VIM-1 = target: T2, VIM-1 (Pseudomonas aeruginosa, UniProt A0A0F7KYQ8); assay: VIM-1 inhibition assay (FC5 fluorogenic substrate); type: biochemical; conditions: mean ± SD (n = 3)
# T2 construct: Li's Laboratory, Sichuan University (collaborator, a gift and not a purchase)
# Method: (§3) Then, we tested all the target compounds against other B1 MBL enzymes, including NDM-1, IMP-1, VIM-1, and VIM-5 (Table 1); all the assay conditions (including enzyme/substrate concentrations) are the same as that previously used. […]. […].
# as §2
# AmpC = AmpC SBL inhibition assay (counter screen); type: biochemical; conditions: 10 μM; mean ± SD (n = 3)
# Method: (§4) Considering that MBLs and SBLs are two catalogs of β-lactamases, we further tested the compound 5l against some representative SBL enzymes, including KPC-2 (Klebsiella pneumoniae carbapenemase 2), TEM-1, AmpC, and OXA-48 (Oxacillinase 48), with the aim of investigating its selectivity; particularly, this is used as a counter screening to indicate the specific inhibition to MBLs.
# as §2
# NDM-1 [1] = target: T3, NDM-1 (Klebsiella pneumoniae, UniProt C7C422); assay: NDM-1 inhibition assay (FC5 fluorogenic substrate); type: biochemical; conditions: mean ± SD (n = 3)
# T3 construct: Li's Laboratory, Sichuan University (collaborator, a gift and not a purchase)
# Method: as §3, §2
# OXA-48 = target: T4, OXA-48 (Klebsiella pneumoniae, UniProt Q6XEC0); assay: OXA-48 SBL inhibition assay (counter screen); type: biochemical
# T4 construct: Li's Laboratory, Sichuan University (collaborator, a gift and not a purchase)
# Method: as §1, §2
# VIM-2 [2] = target: T5, VIM-2 (Escherichia coli, UniProt Q5U7L7); assay: VIM-2 inhibition assay (FC5 fluorogenic substrate); type: biochemical; conditions: for IC50: 10 concentrations in threefold dilution, triplicate, read-out: IC50 against VIM-2; for inhibition at 10 µM / inhibition at 100 µM: mean ± SD (n = 3)
# T5 construct: Li's Laboratory, Sichuan University (collaborator, a gift and not a purchase)
# Method: as §2
# TEM-1 = target: T6, TEM-1 (Escherichia coli, UniProt P62593); assay: TEM-1 SBL inhibition assay (counter screen); type: biochemical; conditions: mean ± SD (n = 3)
# T6 construct: Li's Laboratory, Sichuan University (collaborator, a gift and not a purchase)
# Method: as §4, §2
# VIM-5 = VIM-5 inhibition assay (FC5 fluorogenic substrate); type: biochemical; conditions: mean ± SD (n = 3)
# Method: as §3, §2
# IMP-1 [3] = target: T7, IMP-1 (Serratia marcescens, UniProt P52699); assay: IMP-1 inhibition assay (FC5 fluorogenic substrate); type: biochemical; conditions: for inhibition at 10 µM / inhibition at 100 µM: mean ± SD (n = 3)
# T7 construct: Li's Laboratory, Sichuan University (collaborator, a gift and not a purchase)
# Method: as §3, §2
# NDM-1 [4] = target: T3, NDM-1; conditions: Figure 1, reported inhibitors; read-out: NDM-1 IC50 (reported MBL inhibitors); cited from earlier work
# VIM-2 [5] = target: T5, VIM-2
# B3 L1 MBL = test system: B3 L1 MBL; parameters: method as in PMID 17999929, PMID 20625539, PMID 25893049; conditions: Figure 1, reported inhibitor; read-out: L1 IC50 (reported MBL inhibitors); cited from earlier work
# CfiA = conditions: Figure 1, reported natural product; read-out: CfiA IC50 (reported MBL inhibitors); cited from earlier work
# IMP-1 [6] = target: T7, IMP-1; conditions: Figure 1, reported inhibitors; read-out: IMP-1 IC50 (reported MBL inhibitors); cited from earlier work
# [7] = Figure 1, reported inhibitors; read-out: VIM-2 IC50 (reported MBL inhibitors); cited from earlier work
# T3 sequence (C7C422 29-270, looked up, species assumed): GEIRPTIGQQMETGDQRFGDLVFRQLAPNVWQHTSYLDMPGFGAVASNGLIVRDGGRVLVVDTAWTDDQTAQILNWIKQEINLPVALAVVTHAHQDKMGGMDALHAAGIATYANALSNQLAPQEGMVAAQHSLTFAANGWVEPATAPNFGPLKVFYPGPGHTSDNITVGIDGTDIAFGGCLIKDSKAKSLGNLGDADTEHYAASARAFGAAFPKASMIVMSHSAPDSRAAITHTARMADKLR
# T6 sequence (P62593 24-286 limits assumed): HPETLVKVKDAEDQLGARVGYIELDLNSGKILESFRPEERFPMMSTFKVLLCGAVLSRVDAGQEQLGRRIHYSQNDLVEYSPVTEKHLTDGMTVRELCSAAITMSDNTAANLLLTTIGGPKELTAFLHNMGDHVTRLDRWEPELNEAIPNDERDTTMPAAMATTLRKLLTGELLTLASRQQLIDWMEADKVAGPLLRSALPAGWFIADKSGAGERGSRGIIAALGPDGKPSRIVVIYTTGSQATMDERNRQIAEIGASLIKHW
# T7 sequence (P52699 19-246 limits assumed): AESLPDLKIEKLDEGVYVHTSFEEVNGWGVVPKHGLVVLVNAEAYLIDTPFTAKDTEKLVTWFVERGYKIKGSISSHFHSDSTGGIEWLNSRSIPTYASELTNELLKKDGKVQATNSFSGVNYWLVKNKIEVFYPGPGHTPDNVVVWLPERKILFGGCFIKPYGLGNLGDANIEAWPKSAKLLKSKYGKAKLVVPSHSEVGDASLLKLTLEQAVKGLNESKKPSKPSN
# T1 sequence (Q9F663 25-293, looked up): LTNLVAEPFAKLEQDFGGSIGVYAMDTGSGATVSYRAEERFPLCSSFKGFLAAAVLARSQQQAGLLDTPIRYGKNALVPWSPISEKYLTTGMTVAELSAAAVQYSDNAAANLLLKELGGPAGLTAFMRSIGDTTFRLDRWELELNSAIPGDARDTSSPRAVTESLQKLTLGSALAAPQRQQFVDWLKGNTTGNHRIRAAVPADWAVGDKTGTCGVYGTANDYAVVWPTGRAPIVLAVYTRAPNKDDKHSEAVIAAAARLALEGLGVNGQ
# T4 sequence (Q6XEC0 23-265 limits assumed): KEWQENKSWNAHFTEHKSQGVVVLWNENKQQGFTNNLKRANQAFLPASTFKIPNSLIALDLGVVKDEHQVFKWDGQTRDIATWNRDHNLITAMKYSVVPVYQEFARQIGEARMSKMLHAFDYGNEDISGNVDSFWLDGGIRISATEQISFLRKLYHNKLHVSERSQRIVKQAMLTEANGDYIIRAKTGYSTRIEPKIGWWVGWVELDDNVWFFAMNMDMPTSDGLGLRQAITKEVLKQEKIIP
inhibition at 100 µM (VIM-1),inhibition at 10 µM (NDM-1 [1]),inhibition at 100 µM (NDM-1 [1]),inhibition at 10 µM (VIM-2 [2]),inhibition at 100 µM (VIM-2 [2]),inhibition at 10 µM (IMP-1 [3]),inhibition at 100 µM (IMP-1 [3]),SMILES,Inhibition % VIM-5 (VIM-5; @ 100 μM),further results
24 ± 3%,16%,15 ± 1%,22%,32 ± 4%,6%,5 ± 1%,"c1coc(-c2nnc3n2CCCS3)c1 [10a, 3-(Furan-2-yl)-6,7-dihydro-5H-[1,2,4]triazolo[3,4-b][1,3]thiazine]",11 ± 1/– %,
30 ± 2%,8%,12 ± 2%,16%,30 ± 3%,27%,57 ± 6%,"c1csc(-c2nnc3n2CCCS3)c1 [10b, 3-(Thiophen-2-yl)-6,7-dihydro-5H-[1,2,4]triazolo[3,4-b][1,3]thiazine]",18 ± 2%,"inhibition at 10 µM (VIM-1; @ 10 μM): 32%; IC50 (IMP-1 [3]; 10 concentrations in threefold dilution, triplicate, read-out: IC50 against IMP-1): > 100 µM; Inhibition % VIM-5 (VIM-5; @ 10 μM): 21 ± 2%"
,,,,,,,C[C@H](CS)C(=O)N[C@@H](Cc1coc2ccccc12)B(O)O [III],,IC50 (NDM-1 [4]): 37.9 µM; IC50 (VIM-2 [5]; [7]): 0.44 µM
,,,,,,,C[C@H](CS)C(=O)N[C@@H](C(=O)O)c1ccc(O)cc1 [II],,IC50 (NDM-1 [4]): 3.57 µM; IC50 (VIM-2 [5]; [7]): 0.0137 µM
,,,,,,,O=C(CSc1nnc(-c2ccccc2C(=O)O)[nH]1)Nc1nc2ccccc2s1 [IV],,"Ki (VIM-2 [5]; Figure 1, reported inhibitor; read-out: VIM-2 Ki (reported MBL inhibitors); cited from earlier work): 1.2 µM"
,,,,,,,"NCCN[C@H]1CC[C@H](CC(=O)N[C@H]2Cc3cccc(C(=O)O)c3OB2O)CC1 [IX, taniborbactam]",,IC50 (VIM-2 [5]; [7]): 0.0005 µM
,,,,,,,Cc1ccccc1-c1nnc(S)n1/N=C/c1ccccc1C(=O)O [V],,IC50 (B3 L1 MBL): 15 µM
,,,,,,,"N[C@@H](CN[C@@H](CN[C@@H](CC(=O)O)C(=O)O)C(=O)O)C(=O)O [XI, AMA]",,IC50 (NDM-1 [4]): 4 µM; IC50 (VIM-2 [5]; [7]): 9.6 µM
,,,,,,,"O=C(/C=C/c1ccc(O)c(O)c1)O[C@H](Cc1ccc(O)c(O)c1)C(=O)O [XII, Rosmarinic acid]",,"IC50 (VIM-2 [5]; read-out: VIM-2 IC50 (reported MBL inhibitors); Figure 1, reported inhibitors; cited from earlier work): 41.5 µM"
,,,,,,,CO[C@@H]1O[C@@H](C)Cc2oc3cc(O)c(O)c(C(=O)O)c3c(=O)c21 [X],,IC50 (CfiA): 29 µM; IC50 (IMP-1 [6]): 113 µM
25 ± 3%,21%,26 ± 2%,35%,57 ± 5%,5%,30 ± 3%,"Oc1ccccc1-c1nnc2n1CCCS2 [compound 6, 2-(6,7-Dihydro-5H-[1,2,4]triazolo[3,4-b][1,3]thiazin-3-yl)phenol]",10 ± 2/– %,IC50 (VIM-2 [2]): > 100 µM
22 ± 3%,10%,7 ± 1%,21%,26 ± 2%,18%,15 ± 2%,"O=C(O)c1ccccc1-c1nnc2n1CCCS2 [compound 14, 2-(6,7-Dihydro-5H-[1,2,4]triazolo[3,4-b][1,3]thiazin-3-yl)benzoic acid]",11 ± 1/– %,
25 ± 2%,10%,8 ± 1%,18%,21 ± 2%,19%,13 ± 1%,"O=C(O)c1ccccc1-c1nnc2n1C(=O)CS2 [compound 15, 2-(5-Oxo-5,6-dihydrothiazolo[2,3-c][1,2,4]triazol-3-yl)benzoic acid]",10 ± 2/– %,

SMILES,inhibition at 100 µM (VIM-1),inhibition at 10 µM (NDM-1 [1]),inhibition at 100 µM (NDM-1 [1]),inhibition at 10 µM (VIM-2 [2]),inhibition at 100 µM (VIM-2 [2]),inhibition at 10 µM (IMP-1 [3]),inhibition at 100 µM (IMP-1 [3]),Inhibition % VIM-5 (VIM-5; @ 100 μM),further results
"Brc1ccc(-c2nnc3n2CCCS3)cc1 [5l, 3-(4-Bromophenyl)-6,7-dihydro-5H-[1,2,4]triazolo[3,4-b][1,3]thiazine]",23 ± 1%,10%,8 ± 1%,53%,86 ± 5%,,,33 ± 2/– %,"inhibition at 10 µM (KPC-2; 10 μM): 2 ± 1%; Inhibition % KPC-2 (KPC-2; 100 μM): No or low inhibitory activities; inhibition at 100 µM (KPC-2; 100 μM): 8 ± 2%; Inhibition % AmpC (AmpC): 13 ± 2%; Inhibition % OXA-48 (OXA-48; 100 μM, mean ± SD (n = 3)): No or low inhibitory activities; inhibition at 10 µM (OXA-48; read-out: Inhibition % OXA-48): 7 ± 1%; inhibition at 100 µM (OXA-48; read-out: Inhibition % OXA-48): 17 ± 2%; IC50 (VIM-2 [2]): 38.4 µM; inhibition at 10 µM (TEM-1; 10 μM): 9 ± 1%; Inhibition % TEM-1 (TEM-1; 100 μM): No or low inhibitory activities; inhibition at 100 µM (TEM-1; 100 μM): 20 ± 3%"
